Results reported in patent US6602882B1, “Quinoline derivatives and their use as antibacterial agents” (SmithKline Beecham p.l.c., priority 1998, dated 2003).
Converted amounts (≈) assume the structure as drawn. Where two headings read alike, the source gives them in different places.

How the values were obtained:
Format in all cases: cell-based
[1] = test system: M. catarrhalis Ravasio; assay: MIC against M. catarrhalis Ravasio
Description: (§1) The MIC (μg/ml) of compounds 1, 3 and 4 against various organisms was determined.

[2] = test system: S. aureus Carter 37; assay: MIC against S. aureus Carter 37
Description: as §1

[3] = test system: S. pneumoniae R6; assay: MIC against S. pneumoniae R6
Description: as §1

[4] = test system: E. faecalis I; assay: MIC against E. faecalis I
Description: as §1

[5] = test system: S. aureus WCUH29; assay: MIC against S. aureus WCUH29
Description: as §1

[6] = test system: S. aureus Oxford; assay: MIC against S. aureus Oxford
Description: as §1

[7] = Staphylococcus aureus, CARTER37, read-out: MIC
[8] = Streptococcus pneumoniae, read-out: MIC
[9] = Enterococcus faecalis, read-out: MIC
[10] = Staphylococcus aureus, read-out: MIC

MIC [4] | MIC [5] | MIC [6] | SMILES | MIC [1] | MIC [2] | MIC [3] | MIC [2, 7] | MIC [3, 8] | MIC [4, 9] | MIC [5, 10] | MIC [6, 10] | MIC ([1]; Moraxella catarrhalis, read-out: MIC)
8 µg/mL | 1 µg/mL | 0.5 µg/mL | CCCCCCCN1CC[C@H](NC(=O)Nc2ccnc3ccc(OC)nc23)[C@H](CO)C1.O=C(O)C(=O)O (relative stereo) [Example 6, N-(cis-1-Heptyl-3-(R/S)-hydroxymethyl-4-(S/R)-piperidyl)-N′-(6-methoxy-[1,5]-naphthyridin-4-yl)urea Oxalate] |  |  |  |  |  |  |  |  | 
8 µg/mL | 1 µg/mL | 1 µg/mL | CCCCCCCN1CCC(NC(=O)Nc2ccnc3ccc(OC)nc23)CC1.O=C(O)C(=O)O [Example 7] |  |  |  |  |  |  |  |  | 
4 µg/mL | 1 µg/mL | 1 µg/mL | CCCCCCCN1CC[C@H](NC(=O)Nc2ccnc3ccc(OC)cc23)[C@H](CO)C1.O=C(O)C(=O)O (relative stereo) [Example 5, N-(cis-1-Heptyl-3-(R/S)-hydroxymethyl-4-(S/R)-piperidyl)-N′-(6-methoxyquinolin-4-yl)urea oxalate] |  |  |  |  |  |  |  |  | 
 |  |  | CCCCCCCN1CCC(NC(=O)Nc2ccnc3ccc(OC)cc23)CC1 [Example 4, 1-Heptyl-4-(6-methoxyquinolin4-yl)ureidopiperidine] |  |  |  | 16 µg/mL (≈ 40.1 µM) | 2 µg/mL (≈ 5.02 µM) | 8 µg/mL (≈ 20.1 µM) | 8 µg/mL (≈ 20.1 µM) | 16 µg/mL (≈ 40.1 µM) | 
 |  |  | CCCCCCCN1CCC(OC(=O)Nc2ccnc3ccc(OC)cc23)CC1 [Example 3, 1-Heptyl-4-[N-(6-methoxyquinolin-4-yl)aminocarbonyloxy]piperidine] |  |  |  | 8 µg/mL (≈ 20 µM) | 4 µg/mL (≈ 10 µM) | 8 µg/mL (≈ 20 µM) | 4 µg/mL (≈ 10 µM) | 8 µg/mL (≈ 20 µM) | 16 µg/mL (≈ 40 µM)

SMILES | MIC [4] | MIC [5] | MIC [6] | MIC [1] | MIC [2] | MIC [3] | MIC [2, 7] | MIC [3, 8] | MIC [4, 9] | MIC [5, 10] | MIC [6, 10] | MIC ([1]; Moraxella catarrhalis, read-out: MIC)
CCCCCC1CCC2CC(OC(=O)Nc3ccnc4ccc(OC)cc34)CCN2C1 (centres unmarked) [Example 1, 1-Aza-8-(ax)-[(6-methoxyquinolin-4-yl)-aminocarbonyloxy]-3-(ax)-n-pentyl-bicyclo[4,4,0]decane] | 8 µg/mL (≈ 18.8 µM) | 4 µg/mL (≈ 9.4 µM) | 2 µg/mL (≈ 4.7 µM) | 32 µg/mL (≈ 75.2 µM) | 8 µg/mL (≈ 18.8 µM) | 1 µg/mL (≈ 2.35 µM) |  |  |  |  |  | 
